Series [1] in a line: The drug is tested on Z-029 corresponding to rat gut metagenome with ENA study accession number: PRJEB37062 and ENA sample accession number: ERS12561828 for biotransformation under anaerobic condition. The drug concentrations were measured over 9 timepoints collected between 0 and 24 hours of incubation by liquid-chromatography-coupled mass spectrometry (LC–MS). Conditions: 2 µM.

Series [2] in a line: The drug is tested on Z-025 corresponding to rabbit gut metagenome with ENA study accession number: PRJEB37062 and ENA sample accession number: ERS12561824 for biotransformation under anaerobic condition. The drug concentrations were measured over 9 timepoints collected between 0 and 24 hours of incubation by liquid-chromatography-coupled mass spectrometry (LC–MS). Conditions: 2 µM.

The nature of series [3]: The drug is tested on Z-022 corresponding to mouse gut metagenome with ENA study accession number: PRJEB37062 and ENA sample accession number: ERS12561821 for biotransformation under anaerobic condition. The drug concentrations were measured over 9 timepoints collected between 0 and 24 hours of incubation by liquid-chromatography-coupled mass spectrometry (LC–MS). Conditions: 2 µM.

Series [4] in a line: The drug is tested on Z-018 corresponding to pig gut metagenome with ENA study accession number: PRJEB37062 and ENA sample accession number: ERS12561817 for biotransformation under anaerobic condition. The drug concentrations were measured over 9 timepoints collected between 0 and 24 hours of incubation by liquid-chromatography-coupled mass spectrometry (LC–MS). Conditions: 2 µM.

A short description of series [5]: The drug is tested on Z-013 corresponding to rabbit gut metagenome with ENA study accession number: PRJEB37062 and ENA sample accession number: ERS12561813 for biotransformation under anaerobic condition. The drug concentrations were measured over 9 timepoints collected between 0 and 24 hours of incubation by liquid-chromatography-coupled mass spectrometry (LC–MS). Conditions: 2 µM.

The nature of series [6]: The drug is tested on Z-012 corresponding to metagenome with ENA study accession number: PRJEB37062 and ENA sample accession number: ERS12561812 for biotransformation under anaerobic condition. The drug concentrations were measured over 9 timepoints collected between 0 and 24 hours of incubation by liquid-chromatography-coupled mass spectrometry (LC–MS). To be noted: 2 µM.

A short description of series [7]: The drug is tested on Z-011 corresponding to mouse gut metagenome with ENA study accession number: PRJEB37062 and ENA sample accession number: ERS12561811 for biotransformation under anaerobic condition. The drug concentrations were measured over 9 timepoints collected between 0 and 24 hours of incubation by liquid-chromatography-coupled mass spectrometry (LC–MS). To be noted: 2 µM.

Series [8] can be described thus: The drug is tested on Z-001 corresponding to mouse gut metagenome with ENA study accession number: PRJEB37062 and ENA sample accession number: ERS12561801 for biotransformation under anaerobic condition. The drug concentrations were measured over 9 timepoints collected between 0 and 24 hours of incubation by liquid-chromatography-coupled mass spectrometry (LC–MS). Conditions: 2 µM.

The nature of series [9]: The drug is tested on WLS-310 corresponding to human gut metagenome with ENA study accession number: PRJEB37062 and ENA sample accession number: ERS12561785 for biotransformation under anaerobic condition. The drug concentrations were measured over 9 timepoints collected between 0 and 24 hours of incubation by liquid-chromatography-coupled mass spectrometry (LC–MS). To be noted: 2 µM.

Series [10] can be described thus: The drug is tested on WLS-077 corresponding to human gut metagenome with ENA study accession number: PRJEB37062 and ENA sample accession number: ERS12561750 for biotransformation under anaerobic condition. The drug concentrations were measured over 9 timepoints collected between 0 and 24 hours of incubation by liquid-chromatography-coupled mass spectrometry (LC–MS). Conditions: 2 µM.

The conditions of series [11]: human gut metagenome, 24 h, 2 µM.
For series [12] the following is noted: human gut metagenome, 24 h, 2 µM. This is another data set of the same source.
For series [13] the following is noted: human gut metagenome, 24 h, 2 µM. The source holds these as a separate data set.
The conditions of series [14]: human gut metagenome, 24 h, 2 µM. This is another data set of the same source.
For series [15] the following is noted: human gut metagenome, 24 h, 2 µM. The source holds these as a separate data set.
For series [16] the following is noted: human gut metagenome, 24 h, 2 µM. The source holds these as a separate data set.
The conditions of series [17]: human gut metagenome, 24 h, 2 µM. This is another data set of the same source.
For series [18] the following is noted: human gut metagenome, 24 h, 2 µM. This is another data set of the same source.
For series [19] the following is noted: human gut metagenome, 24 h, 2 µM. The source holds these as a separate data set.
For series [20] the following is noted: human gut metagenome, 24 h, 2 µM. The source holds these as a separate data set.

The source of these data is ChEMBL document CHEMBL5724914, “Linking interpersonal differences in gut microbiota composition and drug biotransformation activity” (2024).
Note: call rule not given here.

For `CC(CCc1ccccc1)NCC(O)c1ccc(O)c(C(N)=O)c1` (stereo not given) [LABETALOL], the “Bacterial Biotransformation” value in series [1] was “Compound NOT metabolized”; in [2], “Compound metabolized”; in series [3], “Compound metabolized”; in [4] it was “Compound NOT metabolized”; in series [5] it was “Compound NOT metabolized”; in [6] it was “Compound NOT metabolized”. Further, the “Bacterial Biotransformation” value in series [7], in series [8], in series [9], in series [10], in series [11] and in series [12] was “Compound NOT metabolized” each time. The “Bacterial Biotransformation” value in series [13], in series [14], in series [15], in series [16], in [17] and in [18] was “Compound NOT metabolized” in each case. Further, the “Bacterial Biotransformation” value in series [19] and in series [20] was “Compound NOT metabolized” throughout.

As for `Br.CN1CCC[C@@H]1Cc1c[nH]c2ccc(CCS(=O)(=O)c3ccccc3)cc12` [ELETRIPTAN HYDROBROMIDE], the “Bacterial Biotransformation” value in series [1], in [2], in [3], in series [4], in [5] and in series [6] was “Compound NOT metabolized” throughout. The “Bacterial Biotransformation” value is “Compound NOT metabolized” in [7]; “Compound NOT metabolized” in [8]; “Compound metabolized” in series [9]; “Compound NOT metabolized” in series [10]; “Compound NOT metabolized” in series [11]; “Compound metabolized” in [12]. In addition, the “Bacterial Biotransformation” value in [13], in series [14], in series [15], in series [16], in [17] and in [18] was “Compound NOT metabolized” in each case. Also, the “Bacterial Biotransformation” value in series [19] and in series [20] was “Compound NOT metabolized” in each case.

Take `COc1cc(NC(C)CCCN)c2ncccc2c1.O=P(O)(O)O.O=P(O)(O)O` (stereo not given) [PRIMAQUINE PHOSPHATE]: the “Bacterial Biotransformation” value in [1] is given as “Compound NOT metabolized”; in series [2] it was “Compound metabolized”; in series [3], “Compound NOT metabolized”; in series [4] it was “Compound NOT metabolized”; in series [5], “Compound NOT metabolized”; in series [6], “Compound NOT metabolized”. Moreover, the “Bacterial Biotransformation” value in [7], in series [8], in series [9], in series [10], in [11] and in [12] was “Compound NOT metabolized” each time. For the same compound, the “Bacterial Biotransformation” value in series [13] was “Compound NOT metabolized”; in [14], “Compound metabolized”; in [15], “Compound NOT metabolized”; in [16] it was “Compound NOT metabolized”; in [17], “Compound NOT metabolized”; in series [18] it was “Compound NOT metabolized”. Further, the “Bacterial Biotransformation” value in [19] is reported as “Compound metabolized”; in [20], “Compound NOT metabolized”.

Take `CC(=O)CCCCn1c(=O)c2c(ncn2C)n(C)c1=O` [PENTOXIFYLLINE]: the “Bacterial Biotransformation” value in [1], in series [2], in series [3], in series [4], in series [5] and in series [6] was “Compound NOT metabolized” each time. Further, the “Bacterial Biotransformation” value in [7], in [8], in series [9], in series [10], in [11] and in [12] was “Compound NOT metabolized” each time. Moreover, the “Bacterial Biotransformation” value in series [13], in series [14], in [15], in series [16], in [17] and in [18] was “Compound NOT metabolized” each time. Moreover, the “Bacterial Biotransformation” value in series [19] and in [20] was “Compound NOT metabolized” each time.

Regarding `Cc1cc(C)cc(OCC2CNC(=O)O2)c1` (stereo not given) [METAXALONE], the “Bacterial Biotransformation” value in series [1], in series [2], in series [3], in series [4], in series [5] and in series [6] was “Compound NOT metabolized” throughout. Also, the “Bacterial Biotransformation” value in series [7] is listed as “Compound NOT metabolized”; in series [8] it was “Compound NOT metabolized”; in series [9], “Compound metabolized”; in [10], “Compound metabolized”; in [11], “Compound NOT metabolized”; in series [12], “Compound metabolized”. The “Bacterial Biotransformation” value is listed as “Compound metabolized” in [13]; “Compound NOT metabolized” in series [14]; “Compound metabolized” in series [15]; “Compound metabolized” in [16]; “Compound NOT metabolized” in [17]; “Compound metabolized” in [18]. Besides, the “Bacterial Biotransformation” value is recorded as “Compound metabolized” in series [19] and “Compound NOT metabolized” in [20].

Consider `OCCN(CCO)c1nc(N2CCCCC2)c2nc(N(CCO)CCO)nc(N3CCCCC3)c2n1` [DIPYRIDAMOLE], for which the “Bacterial Biotransformation” value is “Compound NOT metabolized” in [1]; “Compound NOT metabolized” in series [2]; “Compound metabolized” in series [3]; “Compound metabolized” in series [4]; “Compound NOT metabolized” in series [5]; “Compound NOT metabolized” in series [6]. Also, the “Bacterial Biotransformation” value in [7] is recorded as “Compound NOT metabolized”; in series [8] it was “Compound NOT metabolized”; in [9], “Compound metabolized”; in [10] it was “Compound metabolized”; in series [11], “Compound metabolized”; in series [12], “Compound NOT metabolized”. In addition, the “Bacterial Biotransformation” value in series [13] is “Compound NOT metabolized”; in series [14] it was “Compound metabolized”; in [15], “Compound metabolized”; in [16], “Compound NOT metabolized”; in [17], “Compound NOT metabolized”; in [18], “Compound NOT metabolized”. Also, the “Bacterial Biotransformation” value in series [19] and in series [20] was “Compound NOT metabolized” in each case.
